Key:
[1] = system: Rattus norvegicus; assay: Effect on bone calcium mobilization in vitamin D-deficient weanling Sprague-Dawley rat assessed as serum calcium level at 2340 pmol/day, ip administered as 4 consecutive daily doses measured 24 hrs after last dose; assay type: functional
[2] = system: Rattus norvegicus; assay: Effect on bone calcium mobilization in vitamin D-deficient weanling Sprague-Dawley rat assessed as serum calcium level at 7020 pmol/day, ip administered as 4 consecutive daily doses measured 24 hrs after last dose; assay type: functional
[3] = system: Rattus norvegicus; assay: Effect on bone calcium mobilization in vitamin D-deficient weanling Sprague-Dawley rat assessed as serum calcium level at 780 pmol/day, ip administered as 4 consecutive daily doses measured 24 hrs after last dose; assay type: functional
[4] = system: Rattus norvegicus; assay: Effect on intestinal calcium transport in vitamin D-deficient weanling Sprague-Dawley rat assessed as increase in ratio of serosal to mucosal calcium level at 35100 pmol/day, ip administered as 4 consecutive daily doses measured 24 hrs after last dose by everted gut sac method; assay type: functional
[5] = system: Rattus norvegicus; assay: Effect on intestinal calcium transport in vitamin D-deficient weanling Sprague-Dawley rat assessed as increase in ratio of serosal to mucosal calcium level at 780 pmol/day, ip administered as 4 consecutive daily doses measured 24 hrs after last dose by everted gut sac method; assay type: functional
[6] = system: Rattus norvegicus; assay: Effect on intestinal calcium transport in vitamin D-deficient weanling Sprague-Dawley rat assessed as increase in ratio of serosal to mucosal calcium level at 2340 pmol/day, ip administered as 4 consecutive daily doses measured 24 hrs after last dose by everted gut sac method; assay type: functional
[7] = system: Rattus norvegicus; assay: Effect on intestinal calcium transport in vitamin D-deficient weanling Sprague-Dawley rat assessed as increase in ratio of serosal to mucosal calcium level at 7020 pmol/day, ip administered as 4 consecutive daily doses measured 24 hrs after last dose by everted gut sac method; assay type: functional
[8] = system: Rattus norvegicus; assay: Effect on bone calcium mobilization in vitamin D-deficient weanling Sprague-Dawley rat assessed as serum calcium level at 260 pmol/day, ip administered as 4 consecutive daily doses measured 24 hrs after last dose; assay type: functional
[9] = system: Rattus norvegicus; assay: Effect on bone calcium mobilization in vitamin D-deficient weanling Sprague-Dawley rat assessed as serum calcium level at 87 pmol/day, ip administered as 4 consecutive daily doses measured 24 hrs after last dose; assay type: functional
[10] = system: Rattus norvegicus; assay: Effect on bone calcium mobilization in vitamin D-deficient weanling Sprague-Dawley rat assessed as serum calcium level at 35100 pmol/day, ip administered as 4 consecutive daily doses measured 24 hrs after last dose; assay type: functional
[11] = target: T1, Vitamin D3 receptor (Rattus norvegicus) (UniProt P13053); assay: Activity at VDR in rat osteosarcoma 17/2.8 cells assessed as transcriptional activation of 24-hydroxylase gene promoter after 16 hrs by luciferase reporter gene assay
T1 sequence (whole entry): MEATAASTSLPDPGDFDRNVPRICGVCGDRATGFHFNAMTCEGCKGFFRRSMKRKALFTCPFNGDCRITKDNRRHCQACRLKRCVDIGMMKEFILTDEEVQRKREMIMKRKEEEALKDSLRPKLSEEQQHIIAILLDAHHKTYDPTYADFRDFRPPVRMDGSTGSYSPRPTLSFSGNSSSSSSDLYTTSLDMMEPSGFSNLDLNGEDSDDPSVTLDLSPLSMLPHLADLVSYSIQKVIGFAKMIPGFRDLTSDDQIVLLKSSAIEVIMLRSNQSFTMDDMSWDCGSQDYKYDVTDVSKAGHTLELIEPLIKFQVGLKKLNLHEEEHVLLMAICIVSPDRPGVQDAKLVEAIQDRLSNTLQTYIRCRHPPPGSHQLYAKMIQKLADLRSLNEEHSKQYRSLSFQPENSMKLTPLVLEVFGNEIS

[12] = system: HL-60; assay: Induction of human HL60 cell differentiation into monocytes after 4 days by NBT reduction assay; assay type: functional
[13] = system: Rattus norvegicus; assay: Effect on intestinal calcium transport in vitamin D-deficient weanling Sprague-Dawley rat assessed as ratio of serosal to mucosal calcium level at 87 pmol/day, ip administered as 4 consecutive daily doses measured 24 hrs after last dose by everted gut sac method; assay type: functional
[14] = system: Rattus norvegicus; assay: Effect on intestinal calcium transport in vitamin D-deficient weanling Sprague-Dawley rat assessed as increase in ratio of serosal to mucosal calcium level at 260 pmol/day, ip administered as 4 consecutive daily doses measured 24 hrs after last dose by everted gut sac method; assay type: functional
[15] = target: T1, Vitamin D3 receptor (Rattus norvegicus); assay: Ratio of ED50 of compound to ED50 of [3H]1-alpha,25-(OH)2D3 for VDR in rat osteosarcoma 17/2.8 cells by 24-hydroxylase gene transcriptional activation assay
[16] = target: T1, Vitamin D3 receptor (Rattus norvegicus); assay: Ratio of Ki of the drug to Ki of [3H]1-alpha,25-(OH)2D3 for rat recombinant full length VDR
[17] = target: T2, Vitamin D3 receptor (Rattus norvegicus, UniProt P13053); assay: Displacement of [3H]1-alpha,25-(OH)2D3 from rat recombinant full length VDR
T2 sequence (P13053 whole entry): T1 sequence (whole entry)

[18] = system: HL-60; assay: Ratio of ED50 of drug to ED50 of [3H]1-alpha,25-(OH)2D3 for induction of human HL60 cell differentiation into monocytes by NBT reduction assay; assay type: functional

| SMILES | Activity [1] [mg/dL] | Activity [2] [mg/dL] | Activity [3] [mg/dL] | Activity [4] [mg/dL] | Activity [5] [mg/dL] | Activity [6] [mg/dL] | Activity [7] [mg/dL] | Activity [8] [mg/dL] | Activity [9] [mg/dL] | Activity [10] [mg/dL] | ED50 [11] | ED50 [12] | Activity [13] [mg/dL] | Activity [14] [mg/dL] | Ratio ED50 [15] | Ratio Ki [16] | Ki [17] [nM] | Ratio ED50 [18] |
| --- | --- | --- | --- | --- | --- | --- | --- | --- | --- | --- | --- | --- | --- | --- | --- | --- | --- | --- |
| C=C1/C(=C\C=C2/CCC[C@]3(C)[C@@H]([C@H](C)CCCC(C)(C)O)CC[C@@H]23)C[C@@H](O)C[C@@H]1O [CALCITRIOL] | 7.3 | 7.9 | 5.8 | 8.7 | 11.3 | 10.2 | 10.2 | 5.6 | 4.9 | 9 | 2 ×10⁻¹⁰ M | 3 ×10⁻⁹ M | 8.9 | 12 |  |  |  |  |
| C=C1/C(=C\C=C2/CCC[C@]3(C)[C@@H]([C@H](C)CCCC(C)(C)O)CC[C@@H]23)C[C@H]2OCC=C2[C@@H]1O |  | 6.1 | 4.3 | 8.7 | 11.3 |  | 10.2 |  |  | 9.6 | 6 ×10⁻⁸ M | 1 ×10⁻⁶ M |  |  | 300 | 600 | 60 | 330 |
| C=C1/C(=C\C=C2/CCC[C@]3(C)[C@@H]([C@H](C)CCCC(C)(C)O)CC[C@@H]23)C[C@@H](O)C2=CCO[C@H]12 |  | 4.6 | 4.3 |  | 9.7 |  | 13.7 |  |  |  | 6 ×10⁻⁹ M | 3 ×10⁻⁸ M |  |  | 30 | 2 | 0.2 | 10 |
